# Test results taken from patent publication US20070032443A1, “Therapy for Alzheimer's disease” (priority 2005, published 2007).
# Tested on: HEK293 cells
# Assay: Viability of HEK293 cells in culture with test compound
# Type: cell-based, human
# Set-up: key: ns: results are not shown due to poor viability of HEK293 cells in culture at the indicated compound concentration
# Conditions: 10^−3 dilution of working concentration of Table 4 (D 0.1 millimolar); 6 days of culture
smiles,measurement,value
"O=P(O)(O)C(O)(Cn1ccnc1)P(=O)(O)O [Compound D, zolendronic acid]",Viability of HEK293 cells in culture,ns^2
